Laboratory results reported in US11306078B2, “Piperidine CXCR7 receptor modulators” (IDORSIA PHARMACEUTICALS LTD., priority 2016, dated 2022).

Biological target: human chemokine receptor CXCR7 (Homo sapiens (Human), UniProt P25106)
Experiment: Tango CXCR7-bla U2OS beta-arrestin recruitment assay (beta-lactamase reporter, FRET), antagonism of CXCL12/SDF1-α;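 note: compounds preincubated 15 min before CXCL12 addition, then 22 h at 37 °C, FRET emission ratio read with CCF4-AM substrate after 2 h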
Format: cell-based
Conditions: antagonistic effect on CXCR7; Tango CXCR7-bla U2OS cells, CXCL12/SDF1-α at its EC80

human chemokine receptor CXCR7, sequence (P25106 whole entry): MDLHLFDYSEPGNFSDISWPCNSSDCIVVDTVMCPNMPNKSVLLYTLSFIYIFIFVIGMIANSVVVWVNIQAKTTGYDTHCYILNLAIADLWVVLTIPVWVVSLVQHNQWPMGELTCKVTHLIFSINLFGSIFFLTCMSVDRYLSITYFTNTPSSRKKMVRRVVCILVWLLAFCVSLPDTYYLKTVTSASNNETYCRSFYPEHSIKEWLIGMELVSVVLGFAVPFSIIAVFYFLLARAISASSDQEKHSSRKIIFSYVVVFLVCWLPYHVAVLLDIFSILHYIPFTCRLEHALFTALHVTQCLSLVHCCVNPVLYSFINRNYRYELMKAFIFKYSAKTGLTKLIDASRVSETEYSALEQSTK

SMILES | IC50
Cn1ccc(CNC(=O)[C@@H]2CN(C3CCCCC3)CC[C@H]2NC(=O)c2cc(-c3ccc(F)cc3F)on2)n1 (racemic) [Example 1.042, rac-(3R*,4R*)-1-Cyclohexyl-4-{[5-(2,4-difluoro-phenyl)-isoxazole-3-carbonyl]-amino}-piperidine-3-carboxylic acid (1-methyl-1H-pyrazol-3-ylmetyl)-amide] | 532 nM
O=C(N[C@@H]1CCN(C2CCCCC2)C[C@H]1C(=O)NCc1c[nH]cn1)c1cc(-c2ccc(F)cc2F)on1 (racemic) [Example 1.043, rac-(3R*,4R*)-1-Cyclohexyl-4-{[5-(2,4-difluoro-phenyl)-isoxazole-3-carbonyl]-amino}-piperidine-3-carboxylic acid (1H-imidazol-4-ylmethyl)-amide] | 843 nM
Cc1cc(CNC(=O)[C@@H]2CN(C3CCCCC3)CC[C@H]2NC(=O)c2cc(-c3ccc(F)cc3F)on2)nn1C (racemic) [Example 1.045, rac-(3R*,4R*)-1-Cyclohexyl-4-{[5-(2,4-difluoro-phenyl)-isoxazole-3-carbonyl]-amino}-piperidine-3-carboxylic acid (1,5-dimethyl-1H-pyrazol-3-ylmethyl)-amide] | 565 nM
O=C(N[C@@H]1CCN(C2CCCCC2)C[C@H]1C(=O)NCc1cccnc1)c1cc(-c2ccc(F)cc2F)on1 (racemic) [Example 1.048, rac-(3R*,4R*)-1-Cyclohexyl-4-{[5-(2,4-difluoro-phenyl)-isoxazole-3-carbonyl]-amino}-piperidine-3-carboxylic acid (pyridin-3-ylmethyl)-amide] | 275 nM
O=C(N[C@@H]1CCN(C2CCCCC2)C[C@H]1C(=O)N1CC(F)(F)C1)c1cc(-c2ccc(F)cc2F)on1 (racemic) [Example 1.052, rac-5-(2,4-Difluoro-phenyl)-isoxazole-3-carboxylic acid [(3R*,4R*)-1-cyclohexyl-3-(3,3-difluoro-azetidine-1-carbonyl)-piperidin-4-yl]-amide] | 630 nM
Cc1cc(CNC(=O)[C@@H]2CN(C3CCCCC3)CC[C@H]2NC(=O)c2cc(-c3ccc(F)cc3F)on2)n(C)n1 (racemic) [Example 1.054, rac-(3R*,4R*)-1-Cyclohexyl-4-{[5-(2,4-difluoro-phenyl)-isoxazole-3-carbonyl]-amino}-piperidine-3-carboxylic acid (2,5-dimethyl-2H-pyrazol-3-ylmethyl)-amide] | 311 nM
Cc1nc(NC(=O)[C@@H]2CN(C3CCCCC3)CC[C@H]2NC(=O)c2cc(-c3ccc(F)cc3F)on2)sc1C (racemic) [Example 1.065, rac-(3R*,4R*)-1-Cyclohexyl-4-{[5-(2,4-difluoro-phenyl)-isoxazole-3-carbonyl]-amino}-piperidine-3-carboxylic acid (4,5-dimethyl-thiazol-2-yl)-amide] | 567 nM
O=C(N[C@@H]1CCN(C2CCCCC2)C[C@H]1C(=O)Nc1cccnc1)c1cc(-c2ccc(F)cc2F)on1 (racemic) [Example 1.067, rac-(3R*,4R*)-1-Cyclohexyl-4-{[5-(2,4-difluoro-phenyl)-isoxazole-3-carbonyl]-amino}-piperidine-3-carboxylic acid pyridin-3-ylamide] | 319 nM

Compounds with a lower IC50, results first:

IC50 | SMILES
91 nM | O=C(N[C@@H]1CCN(C2CCCCC2)C[C@H]1C(=O)NCCN1CCCC1=O)c1cc(-c2ccc(F)cc2F)on1 (racemic) [Example 1.041, rac-(3R*,4R*)-1-Cyclohexyl-4-{[5-(2,4-difluoro-phenyl)-isoxazole-3-carbonyl]-amino}-piperidine-3-carboxylic acid [2-(2-oxo-pyrrolidin-1-yl)-ethyl]-amide]
127 nM | CCc1noc(CNC(=O)[C@@H]2CN(C3CCCCC3)CC[C@H]2NC(=O)c2cc(-c3ccc(F)cc3F)on2)n1 (racemic) [Example 1.047, rac-(3R*,4R*)-1-Cyclohexyl-4-{[5-(2,4-difluoro-phenyl)-isoxazole-3-carbonyl]-amino}-piperidine-3-carboxylic acid (3-ethyl-[1,2,4]oxadiazol-5-ylmethyl)-amide]
49 nM | O=C(N[C@@H]1CCN(C2CCCCC2)C[C@H]1C(=O)NCc1nccs1)c1cc(-c2ccc(F)cc2F)on1 (racemic) [Example 1.051, rac-(3R*,4R*)-1-Cyclohexyl-4-{[5-(2,4-difluoro-phenyl)-isoxazole-3-carbonyl]-amino}-piperidine-3-carboxylic acid (thiazol-2-ylmethyl)-amide]
232 nM | CC(C)N(CCOCCO)C(=O)[C@@H]1CN(C2CCCCC2)CC[C@H]1NC(=O)c1cc(-c2ccc(F)cc2F)on1 (racemic) [Example 1.055, rac-(3R*,4R*)-1-Cyclohexyl-4-{[5-(2,4-difluoro-phenyl)-isoxazole-3-carbonyl]-amino}-piperidine-3-carboxylic acid [2-(2-hydroxy-ethoxy)-ethyl]-isopropyl-amide]
4 nM | Cc1ccccc1CCNC(=O)[C@@H]1CN(C2CCCCC2)CC[C@H]1NC(=O)c1cc(-c2ccc(F)cc2F)on1 (racemic) [Example 1.056, rac-(3R*,4R*)-1-Cyclohexyl-4-{[5-(2,4-difluoro-phenyl)-isoxazole-3-carbonyl]-amino}-piperidine-3-carboxylic acid (2-o-tolyl-ethyl)-amide]
1 nM | COc1ccccc1CCNC(=O)[C@@H]1CN(C2CCCCC2)CC[C@H]1NC(=O)c1cc(-c2ccc(F)cc2F)on1 (racemic) [Example 1.057, rac-(3R*,4R*)-1-Cyclohexyl-4-{[5-(2,4-difluoro-phenyl)-isoxazole-3-carbonyl]-amino}-piperidine-3-carboxylic acid [2-(2-methoxy-phenyl)-ethyl]-amide]
1 nM | O=C(N[C@@H]1CCN(C2CCCCC2)C[C@H]1C(=O)NCCc1ccccc1Cl)c1cc(-c2ccc(F)cc2F)on1 (racemic) [Example 1.058, rac-(3R*,4R*)-1-Cyclohexyl-4-{[5-(2,4-difluoro-phenyl)-isoxazole-3-carbonyl]-amino}-piperidine-3-carboxylic acid [2-(2-chloro-phenyl)-ethyl]-amide]
140 nM | O=C(N[C@@H]1CCN(C2CCCCC2)C[C@H]1C(=O)NCCc1ccc(F)cc1)c1cc(-c2ccc(F)cc2F)on1 (racemic) [Example 1.059, rac-(3R*,4R*)-1-Cyclohexyl-4-{[5-(2,4-difluoro-phenyl)-isoxazole-3-carbonyl]-amino}-piperidine-3-carboxylic acid [2-(4-fluoro-phenyl)-ethyl]-amide]
16 nM | Cc1ccc(CCNC(=O)[C@@H]2CN(C3CCCCC3)CC[C@H]2NC(=O)c2cc(-c3ccc(F)cc3F)on2)cc1 (racemic) [Example 1.062, rac-(3R*,4R*)-1-Cyclohexyl-4-{[5-(2,4-difluoro-phenyl)-isoxazole-3-carbonyl]-amino}-piperidine-3-carboxylic acid (2-p-tolyl-ethyl)-amide]
16 nM | Cc1cccc(CCNC(=O)[C@@H]2CN(C3CCCCC3)CC[C@H]2NC(=O)c2cc(-c3ccc(F)cc3F)on2)c1 (racemic) [Example 1.066, rac-(3R*,4R*)-1-Cyclohexyl-4-{[5-(2,4-difluoro-phenyl)-isoxazole-3-carbonyl]-amino}-piperidine-3-carboxylic acid (2-m-tolyl-ethyl)-amide]
